The nature of data set [1]: Unbound fraction in plasma (rapid equilibrium dialysis), rat. The note with it: rats plasma, 0.3, 1, 3 μM, RED 5 h, read-out: fu,p. The format is in vitro ADME. The method, then:
(§1) The unbound fractions of IDP-73152 in various matrices were measured according to the manufacturer’s instructions for the rapid equilibrium dialysis (RED) device (ThermoFisher Scientific, Waltham, MA, USA). Briefly, IDP-73152 was added to the plasma or the microsomal/hepatocyte incubation buffer from various species (i.e., mouse, rat, dog, and human for microsomal incubation; rat for hepatocyte incubation) to obtain final concentrations of the compound at 0.3, 1, and 3 μM. After the membrane insert was placed in the RED plate, the solution containing IDP-73152 was added (400 µL) to the sample chamber, and the dialysis buffer (600 μL) was added to the buffer chamber. The RED plate was sealed with parafilm and then incubated at 37 °C in the orbital shaker (Lab Companion, Daejeon, Korea) at 100 rpm for 5 h. After a 50 μL aliquot was aspirated from both the sample and buffer chambers, an equal volume of protein-free buffer or blank medium was replaced in the aspirated sample or buffer to render the matrices compositionally identical. The IDP-73152 concentration in the buffer/sample chambers (i.e., CBuffer Chamber and CSample Chamber) was determined by an assay. Thus, the fraction unbound was defined as:(2) % Fraction unbound=(CBuffer Chamber/CSample Chamber)×100%

A short description of data set [2]: Unbound fraction in plasma (rapid equilibrium dialysis), dog. The format is in vitro ADME. The note with it: dogs plasma, 0.3, 1, 3 μM, RED 5 h, read-out: fu,p. The method, then: as §1
(Equilibrium dialysis compares concentrations on both sides of a semipermeable membrane.)

Data set [3] is described as follows: Unbound fraction in plasma (rapid equilibrium dialysis), human. In kind it is in vitro ADME. The settings on record: humans plasma, 0.3, 1, 3 μM, RED 5 h, read-out: fu,p. The method, then: as §1
A short description of data set [4]: in vitro. In kind it is in vitro ADME. The note with it: microsomes. As to the method:
as §1

Data set [5] in a line: Unbound fraction in hepatocyte incubation, rat. The format is in vitro ADME. The settings on record: hepatocytes (hepatocyte incubation mixture), rats hepatocyte incubation, read-out: fu,hep. The method, then: as §1
A short description of data set [6]: PK study in mice (intravenous and oral). The format is in vivo, male ICR mice. The method, then: The in vivo experimental protocol was approved by the Institutional Animal Care and Use Committee of Research Laboratory at Ildong pharmaceutical Co., Ltd. (Ref. No.: IDL-PDF-001 and 09005-11004). Animals were acclimatized to the laboratory conditions for at least 1 week before the experiments and were kept in the standardized conditions (20–25 °C, 55 ± 5% humidity, and a 12 h light/dark cycle). The animals fasted overnight prior to drug administration, and food was resupplied 4 h post-dose. In this study, a single dose of IDP-73152 at 10 mg/kg (i.e., the injection volume of 5 mL/kg, IDP-73152 dissolved in saline) was intravenously administered to male ICR mice (body weight 18.2–21.4 g, Orient Bio Inc., Seongnam, Korea) via the tail vein. […] Blood samples (100 μL) were collected from the retroorbital plexus at 0.167, 0.333, 0.5, 1, 2, 4, or 8 h after the administration. Plasma was separated/collected from the blood samples by centrifugation for 5 min at 10,000× g/4 °C and stored at −80 °C until analysis. When necessary for a model independent PK analysis, a standard moment analysis was carried out with WinNonlin software using either representative (for the study with mice) or individual (for the study with rats, dogs, and humans) concentration–time profile(s). For the calculation of PBPK models, Berkeley Madonna 8.3.18 (Albany, CA, USA) was used with the fourth-order Runge–Kutta method for numerical integration.

Data set [7] has as its system the bacterial strains. Description: In vitro minimum inhibitory concentration, preliminary screening. The format is cell-based. The settings on record: preliminary screening study, against the bacterial strains.
Data set [8] concerns hepatic CYP3A. Description: Preliminary studies of metabolic pathway. The format is in vitro ADME.
Data set [9] has as its system penicillin-resistant Streptococcus pneumonia. The note with it: infected mice, twice-a-day dosing; cited from earlier work.
Data set [10] relates to vancomycin-resistant Enterococcus faecium. The settings on record: infected mice, twice-a-day dosing; cited from earlier work.
[11] abbreviates: male, ICR, mouse, plasma, oral 20 mg/kg.

Where two headings read alike, the source gives them in different places.

In general, AUC(0-inf) refers to total exposure, with the tail of the curve extrapolated. A high value points to high exposure. One may read the Cmax as the highest concentration seen after dosing. For orientation: Tmax means the time from dosing to the highest level. In general, bioavailability refers to the share of a dose that reaches the circulation, judged against a reference dose that is usually intravenous. In the case of `CC(C)(C)[C@H](NC(=O)[C@H](CC1CCCC1)CN(O)C=O)C(=O)N1CCC(NCc2cc(F)c(F)cc2F)CC1` [IDP-73152], the fraction unbound at 5 h in data set [1] came to 0.0582 ± 0.005; in [2], 0.0547 ± 0.0053; in data set [3], 0.0744 ± 0.0019; in data set [4] (dog) it was 0.507 ± 0.04; in [4] (human) it was 0.579 ± 0.006; in [4] (mouse), 0.571 ± 0.023. Moreover, the fraction unbound at 5 h came to 0.439 ± 0.043 in [4] (rat) and 0.492 ± 0.068 in data set [5]. Also, the Vd in data set [6] (male, ICR, mouse, plasma, intravenous 10 mg/kg, moment analysis, read-out: Vss) is 1.43 L/kg. In addition, the half-life is 43.9 min in data set [6] (male, ICR, mouse, plasma, intravenous 10 mg/kg, read-out: t1/2 (converted)) and 172 min in [6] (male, ICR, mouse, plasma, oral 20 mg/kg, read-out: t1/2 (terminal phase half-life) (converted)). The clearance in data set [6] (male, ICR, mouse, plasma, intravenous 10 mg/kg, representative concentration–time profile, read-out: CLp (converted)) was 25.3 mL/min/kg. Moreover, the AUC(0-inf) in data set [6] (male, ICR, mouse, plasma, iv, 10 mg/kg, intravenous 10 mg/kg) turned out to be 6590 ng·h/mL; in data set [6] (male, ICR, mouse, plasma, po, 20 mg/kg, oral 20 mg/kg), 10900 ng·h/mL. The molecule also had a Cmax in data set [6] (setting [11]) of 3100 ng/mL. For the same molecule, in data set [6] (setting [11]), the Tmax was 20 min. In data set [6] (male, ICR, mouse, plasma, oral 20 mg/kg vs intravenous 10 mg/kg, read-out: F (bioavailability)), the bioavailability turned out to be 78.1%. In [6] (oral 20 mg/kg, 20 mg/kg), this molecule showed an AUCinf of 10300 ng·h/mL. Besides, the “in vitro minimum inhibitory concentration values” in data set [7] is “comparable to, or less than, those of linezolid and vancomycin”. The “primary metabolic pathway” value in data set [8] is “mediated by hepatic CYP3A”. Also, the figures for the “ED50 (oral dose at which the survival rate was 50%)” value in data set [9] and in data set [10] were 3.0 mg/kg and 13.3 mg/kg, respectively.
